Results on two compounds are retold here after patent US20090220621A1, “Pharmaceutical compositions of a non-enteric coated proton pump inhibitor with a carbonate salt and bicarbonate salt combination” (priority 2000, published 2009).

What all share (format): physicochemical
Data set [1] is described as follows: Gas and CO2 generated by neutralization of simulated gastric fluid (Orsat apparatus, standard CO2 assay). An excerpt: To quantify the gas produced by the neutralization of simulated gastric fluid ([…]) by carbicarb and by sodium bicarbonate in vitro, a standard CO2 assay technique was utilized (see USP 24-NF 19 Beta, The United States Pharmacopeia 2000, p. 306)
(§1) Aqueous solutions to be tested were made up from starting materials sodium carbonate, (anhydrous, available from Mallinckrodt) and sodium bicarbonate (available from Mallinckrodt). An 8.4% sodium bicarbonate solution and an 8.4% carbicarb solution (containing equimolar amounts of sodium bicarbonate and sodium carbonate) were tested as follows.
The specimen gas was generated by reacting either 450 mL simulated gastric fluid (SGF) with 50 mL of the carbicarb solution; or by reacting 45 ml of simulated gastric fluid with 5 ml of sodium bicarbonate solution in a 500 mL Erlenmeyer flask.
To make Simulated Gastric Fluid (SGF) 1 g sodium chloride was transferred to a 500-mL volumetric flask. After adding 1.6 g pepsin, 25 mL 2 N hydrochloric acid was added and swirled to mix. The resultant solution could then be diluted to the appropriate volume with water.
The amount of gas generated in a twenty-minute time period was measured in an Orsat Glass Vapor Absorption Apparatus, by the standard assay technique. Two tests were run for each solution. The volume of CO2 generated was calculated from the difference in the initial volume of gas produced (ml) and the final volume of gas remaining (ml).

A short description of data set [2]: Titration of simulated gastric fluid with acid neutralizer solution (gastric acid neutralizing capacity). Particulars: 50 mL SGF. As for the experimental part:
To determine and compare the gastric acid neutralizing capacity of sodium bicarbonate solution to carbicarb solution, the following experiment was performed.
as §1
50 mL simulated gastric fluid (SGF, prepared according to the procedure described in Example 1) was pipetted into an Erlenmeyer flask. Four drops of methyl red, then four drops of phenolphthalein were then added to the flask. The pH of solution was monitored with a pH electrode. The solution to be tested was added to a 5-mL buret. The gastric media in the flask was then titrated with the test solution to an endpoint within 0.2 pH units of pH 6.5 (as indicated by the color change and pH reading). Then, titration was resumed, to an endpoint within 0.2 pH units of pH 8.0 (as indicated by the color change and pH reading).

Data set [3] in a line: Stability of lansoprazole in simulated gastric fluid with and without carbicarb (chromatographic assay). As to conditions: for % labeled amount of lansoprazole remaining: Sample in water; for % of the drug degraded: at 60 minutes in SGF. As for the experimental part: Lansoprazole degrades in acid and is stable in base. This study was performed to determine 1) how quickly lansoprazole degrades in simulated gastric fluid (SGF); and 2) whether a high pH-buffering agent (carbicarb which is an equimolar mixture of sodium carbonate and sodium bicarbonate) could be used to retard the degradation of lansoprazole in SGF. All the experiments were conducted at room temperature (22° C.±2° C.).
The PPI test sample included lansoprazole (30 mg); mannitol (60 mg), meglumine (30 mg) and sodium hydroxide (3 mg).
Then 5.0 mL 2 N sodium hydroxide solution was added to the 0-minutes beaker with mixing. To each of the 5 remaining beakers, 10.0 mL of 8.4% carbicarb solution was added and stirred to mix. At the appropriate time interval (corresponding to the individual beaker numbers), 5.0 mL 2 N sodium hydroxide solution was added to stop the reaction. A portion of the resulting solution was diluted with pH 10 diluent. 10 μL of the resulting solution was then injected into the chromatographic system for assay.
Granular formulations of lansoprazole, including carbicarb were also made and tested. The stability of the granular formulations was tested according to the procedure of Example 3. The granular formulations of lansoprazole for this example were prepared as follows.
The coherent mass containing lansoprazole, carbicarb, lactose and sucrose solution was prepared as described above, in Example 3. This coherent mass was passed through a 20-mesh screen and the resulting granules were dried at 50° C. for 12 hours. Granules containing 30-mg lansoprazole were transferred to an amber color container along with and an equal weight of flavor granules. 10 ml of water ((HPLC grade, Fisher Scientific, Pittsburgh, Pa.) was added to the container with gentle shaking to reconstitute the suspension. The resulting suspension of lansoprazole was tested for stability in simulated gastric fluid as described earlier in Experiment 3.

Where [4] appears, read: 450 mL SGF and 50 mL test solution, ten times the 45 mL/5 mL values.

Each structure is given as a SMILES string. Values joined by “and” are separate entries in the source; they are usually repeats but may differ in a detail not shown here. Identical values can stand only once.

In the case of `O=C([O-])O.[Na+]` [8.4% sodium bicarbonate solution, sodium bicarbonate], the “Volume of CO2” value is 2.9 mL and 5.3 mL in data set [1] (45 mL SGF and 5 mL test solution, initial minus residual gas volume); 29.0 mL and 53.0 mL in data set [1] (setting [4]). Besides, the “Initial Gas Volume” value in data set [1] (setting [4]) was 930.0 mL and 820.0 mL. In addition, the “Volume of Acid Neutralizer Solution Required” value in data set [2] (pH after adding neutralizer 7.0) is 5.00 mL; in data set [2] (pH after adding neutralizer 8.0), 6.20 mL; in data set [2] (pH of simulated gastric fluid after adding neutralizer 1.2), 0 mL.

`Cc1c(OCC(F)(F)F)ccnc1C[S+]([O-])c1nc2ccccc2[nH]1` (centres unmarked) [lansoprazole]: the “% labeled amount of lansoprazole remaining” value in data set [3] (time in SGF 30 minutes) is 4.1%; in data set [3] (time in SGF 45 minutes), 2.7%; in data set [3] (time in SGF 60 minutes), 2.0%. Besides, the “% of the drug degraded” value in data set [3] (constituted with carbicarb solution) is on record as 3.5%; in data set [3] (reconstituted with water), 98%.
